Reference: patent US20140011799A1 (Bristol-Myers Squibb Company, priority 2012, published 2014)

Key:
[1] = biological target: T1, Endothelial lipase (EL) (Homo sapiens, UniProt Q9Y5X9); experiment: Endothelial lipase (EL) enzymatic assay, fluorescent substrate A10070 in DMPG vesicles; type: biochemical; conditions: EL from conditioned media of HT-1080 cells; compound preincubated 30 min at 37° C; read-out: EL IC50
T1 construct: HT-1080 cells that were transformed using RAGE technology (Athersys) to overexpress endogenous EL; endogenous in cells; conditioned medium used
T1 sequence (Q9Y5X9 21-500): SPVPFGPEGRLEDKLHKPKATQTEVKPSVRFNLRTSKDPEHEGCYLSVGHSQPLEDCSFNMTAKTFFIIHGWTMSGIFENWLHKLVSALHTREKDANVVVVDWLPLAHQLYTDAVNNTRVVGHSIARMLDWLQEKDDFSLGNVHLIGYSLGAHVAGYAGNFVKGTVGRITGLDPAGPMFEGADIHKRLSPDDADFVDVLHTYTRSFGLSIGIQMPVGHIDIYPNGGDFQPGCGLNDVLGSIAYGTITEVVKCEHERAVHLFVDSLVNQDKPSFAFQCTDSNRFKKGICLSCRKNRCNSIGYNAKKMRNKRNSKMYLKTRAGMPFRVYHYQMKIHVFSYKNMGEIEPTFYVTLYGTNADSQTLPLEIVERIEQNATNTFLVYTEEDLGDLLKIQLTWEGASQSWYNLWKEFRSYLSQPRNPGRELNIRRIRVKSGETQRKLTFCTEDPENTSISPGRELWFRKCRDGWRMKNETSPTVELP
Outline: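 EL from conditioned medium of HT-1080 cells engineered to overexpress endogenous EL; HL partially purified from conditioned medium of HL-overexpressing COS cells. Enzyme preincubated with compound 30 min at 37° C in 50 mM HEPES pH 8.0, 50 mM NaCl, 1 mM CaCl2; DMPG vesicles carrying FRET substrate (0.11 mole fraction) then added.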

[2] = biological target: T2, hepatic lipase (HL) (Homo sapiens, UniProt P11150); experiment: Hepatic lipase (HL) enzymatic assay, fluorescent substrate A10070 in DMPG vesicles; type: biochemical; conditions: HL partially purified from conditioned media of COS cells; compound preincubated 30 min at 37° C; read-out: HL IC50
T2 construct: made in house; host or cells: COS cells (conditioned medium, partially purified)
T2 sequence (P11150 23-499): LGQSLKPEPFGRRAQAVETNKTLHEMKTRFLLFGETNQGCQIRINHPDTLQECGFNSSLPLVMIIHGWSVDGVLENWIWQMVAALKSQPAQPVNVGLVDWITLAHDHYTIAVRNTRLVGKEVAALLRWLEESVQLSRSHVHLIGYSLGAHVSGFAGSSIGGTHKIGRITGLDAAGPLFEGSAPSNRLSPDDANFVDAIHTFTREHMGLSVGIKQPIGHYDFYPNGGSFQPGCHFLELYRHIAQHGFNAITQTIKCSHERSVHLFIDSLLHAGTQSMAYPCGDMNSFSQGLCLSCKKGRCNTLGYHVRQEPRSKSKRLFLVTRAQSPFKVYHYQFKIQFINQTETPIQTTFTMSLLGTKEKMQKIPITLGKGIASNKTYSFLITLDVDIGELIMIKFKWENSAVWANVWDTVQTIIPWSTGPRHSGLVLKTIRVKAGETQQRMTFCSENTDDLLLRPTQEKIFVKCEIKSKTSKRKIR
Description: Endothelial lipase (EL) and hepatic lipase (HL) activities were measured using a fluorescent substrate, A10070, (Invitrogen, CA) doped into an artificial vesicle containing DMPG (Avanti Polar Lipids) as the excipient. Vesicles were prepared by combining 571 μL of 29 mM DMPG in a 1:1 mixture of MeOH and CHCl3 with 2000 μL of 1 mM A10070 in a 1:1 mixture of MeOH and CHCl3. The mixture was dried under nitrogen in multiple vials then resuspended in 20 mL total volume of 50 mM HEPES pH 8.0 buffer containing 50 mM NaCl and 0.2 mM EDTA. The sample was allowed to sit at room temperature for 15 min and then was sonicated 3×4 mins on ice with a Branson Sonicator using duty cycle 1. This preparation provides vesicles with a mole fraction of 0.11 for the FRET substrate.
The enzymatic assay was measured using 384-well white Optiplates. Each well contained 20 μL of assay buffer (50 mM HEPES pH 8.0, 50 mM NaCl and 1 mM CaCl2) and 0.25 μL of a DMSO solution containing a compound of interest. EL or HL (10 μL) was added and allowed to incubate with the compound for 30 min at 37° C. The source of EL was conditioned media obtained from HT-1080 cells that were transformed using RAGE technology (Athersys) to overexpress endogenous EL, and HL was partially purified from conditioned media obtained from COS cells overexpressing HL. The reaction was started by the addition of 10 μL of a 1:10 dilution of vesicles. The final total reaction volume was […]. The reaction rates were measured on a Gemini plate reader with an excitation wavelength of 490 nm and an emission wavelength of 530 nm. Readings were taken over a period of 60 minutes, and the slope between 300 and 900 secs of the readout was used to calculate the rate of the reaction.

Row | IC50 [1] | IC50 [2] | SMILES
1 | < 0.01 µM | 0.102 µM | COc1cc(-c2ccc3nc(C(c4nnc(CNS(N)(=O)=O)o4)S(C)(=O)=O)sc3c2)ccn1 (stereo not drawn) [Example 131, N-((5-((6-(2-methoxy-4-pyridinyl)-1,3-benzothiazol-2-yl)(methylsulfonyl)methyl)-1,3,4-oxadiazol-2-yl)methyl)sulfamide]
2 | 0.032 µM | 22.3 µM | CS(=O)(=O)C(c1nnc(CNS(N)(=O)=O)o1)c1nc2ccc(-c3cnn(CCN4CCOCC4)c3)cc2s1 (stereo not drawn) [Example 132, N-((5-((methylsulfonyl)(6-(1-(2-(4-morpholinyl)ethyl)-1H-pyrazol-4-yl)-1,3-benzothiazol-2-yl)methyl)-1,3,4-oxadiazol-2-yl)methyl) sulfamide]
3 | 0.016 µM | 0.467 µM | CS(=O)(=O)C(c1nnc(CNS(N)(=O)=O)o1)c1nc2ccc(-c3ccc(O)nc3)cc2s1 (stereo not drawn) [Example 133, N-((5-((methylsulfonyl)(6-(6-oxo-1,6-dihydro-3-pyridinyl)-1,3-benzothiazol-2-yl)methyl)-1,3,4-oxadiazol-2-yl)methyl) sulfamide]
4 | 0.02 µM | 0.307 µM | NS(=O)(=O)NCc1nnc(C(c2nc3ccc(-c4ccc(C(=O)N5CCOCC5)cc4)cc3s2)S(=O)(=O)CCNC(=O)OCc2ccccc2)o1 (stereo not drawn) [Example 134, benzyl {2-[({6-[4-(4-morpholinylcarbonyl)phenyl]-1,3-benzothiazol-2-yl}{5-[(sulfamoylamino)methyl]-1,3,4-oxadiazol-2-yl}methyl)sulfonyl]ethyl} carbamate]
5 | < 0.01 µM | 0.091 µM | CC1(CS(=O)(=O)C(c2nnc(CNS(N)(=O)=O)o2)c2nc3ccc(-c4ccc(C(=O)N5CCOCC5)cc4)cc3s2)COC1 (stereo not drawn) [Example 135, N-((5-((((3-methyl-3-oxetanyl)methyl)sulfonyl)(6-(4-(4-morpholinylcarbonyl)phenyl)-1,3-benzothiazol-2-yl)methyl)-1,3,4-oxadiazol-2-yl)methyl)sulfamide]
6 | < 0.01 µM | < 0.01 µM | CC(C)Cn1cc(-c2ccc3nc(C(c4nnc(CNS(N)(=O)=O)o4)S(=O)(=O)Cc4ccccc4)sc3c2)cn1 (stereo not drawn) [Example 136, N-((5-((benzylsulfonyl)(6-(1-isobutyl-1H-pyrazol-4-yl)-1,3-benzothiazol-2-yl)methyl)-1,3,4-oxadiazol-2-yl)methyl)sulfamide]
7 | < 0.01 µM | < 0.01 µM | NS(=O)(=O)NCc1nnc(C(c2nc3ccc(-c4cnn(-c5ccc(F)cc5)c4)cc3s2)S(=O)(=O)Cc2ccccc2)o1 (stereo not drawn) [Example 138, N-((5-((benzylsulfonyl)(6-(1-(4-fluorophenyl)-1H-pyrazol-4-yl)-1,3-benzothiazol-2-yl)methyl)-1,3,4-oxadiazol-2-yl)methyl)sulfamide]

Second part, the molecule before the results:

Row | SMILES | IC50 [1] | IC50 [2]
8 | COc1cc(-c2ccc3nc(C(c4nnc(CNS(N)(=O)=O)o4)S(=O)(=O)Cc4ccccc4)sc3c2)ccn1 (stereo not drawn) [Example 137, N-((5-((benzylsulfonyl)(6-(2-methoxy-4-pyridinyl)-1,3-benzothiazol-2-yl)methyl)-1,3,4-oxadiazol-2-yl)methyl) sulfamide] | < 0.01 µM | < 0.01 µM
9 | NS(=O)(=O)NCc1nnc(C(c2nc3ccc(-c4ccc(F)c(Cl)c4)cc3s2)S(=O)(=O)Cc2ccccc2)o1 (stereo not drawn) [Example 139, N-((5-((benzylsulfonyl)(6-(3-chloro-4-fluorophenyl)-1,3-benzothiazol-2-yl)methyl)-1,3,4-oxadiazol-2-yl)methyl) sulfamide] | < 0.01 µM | < 0.01 µM
10 | NS(=O)(=O)NCc1nnc(C(c2nc3ccc(-c4ccc(Cl)c(F)c4)cc3s2)S(=O)(=O)Cc2ccccc2)o1 (stereo not drawn) [Example 140, N-((5-((benzylsulfonyl)(6-(4-chloro-3-fluorophenyl)-1,3-benzothiazol-2-yl)methyl)-1,3,4-oxadiazol-2-yl)methy) sulfamide] | < 0.01 µM | < 0.01 µM
11 | CN(C)C(=O)c1ccc(-c2ccc3nc(C(c4nnc(CNS(=O)(=O)NC(=O)OC(C)(C)C)o4)S(=O)(=O)Cc4ccccc4)sc3c2)cc1Cl (stereo not drawn) [Example 141, tert-butyl (((5-((benzylsulfonyl)(6-(3-chloro-4-(dimethylcarbamoyl)phenyl)-1,3-benzothiazol-2-yl)methyl)-1,3,4-oxadiazol-2-yl)methyl)sulfamoyl) carbamate] | < 0.01 µM | 0.05 µM
12 | CC(C)(C)OC(=O)NS(=O)(=O)NCc1nnc(C(c2nc3ccc(-c4cc(F)cc(Cl)c4)cc3s2)S(=O)(=O)Cc2ccccc2)o1 (stereo not drawn) [Example 142, tert-butyl (((5-((benzylsulfonyl)(6-(3-chloro-5-fluorophenyl)-1,3-benzothiazol-2-yl)methyl)-1,3,4-oxadiazol-2-yl)methyl)sulfamoyl)carbamate] | < 0.01 µM | < 0.01 µM
13 | NS(=O)(=O)NCc1nnc(C(c2nc3ccc(-c4cc(Cl)cc(Cl)c4)cc3s2)S(=O)(=O)Cc2ccccc2)o1 (stereo not drawn) [Example 143, N-((5-((benzylsulfonyl)(6-(3,5-dichlorophenyl)-1,3-benzothiazol-2-yl)methyl)-1,3,4-oxadiazol-2-yl)methyl) sulfamide] | < 0.01 µM | < 0.01 µM
14 | NS(=O)(=O)NCc1nnc(C(c2nc3ccc(-c4cc(F)cc(Cl)c4)cc3s2)S(=O)(=O)Cc2ccccc2)o1 (stereo not drawn) [Example 144, N-((5-((benzylsulfonyl)(6-(3-chloro-5-fluorophenyl)-1,3-benzothiazol-2-yl)methyl)-1,3,4-oxadiazol-2-yl)methyl) sulfamide] | < 0.01 µM | < 0.01 µM
15 | NS(=O)(=O)NCc1nnc(C(c2nc3ccc(-c4cc(F)nc(F)c4)cc3s2)S(=O)(=O)Cc2ccccc2)o1 (stereo not drawn) [Example 145, N-((5-((benzylsulfonyl)(6-(2,6-difluoro-4-pyridinyl)-1,3-benzothiazol-2-yl)methyl)-1,3,4-oxadiazol-2-yl)methyl)sulfamide] | < 0.01 µM | 0.077 µM
16 | CN(C)C(=O)c1ccc(-c2ccc3nc(C(c4nnc(CNS(N)(=O)=O)o4)S(=O)(=O)Cc4ccccc4)sc3c2)cc1Cl (stereo not drawn) [Example 146, 4-(2-((benzylsulfonyl)(5-((sulfamoylamino)methyl)-1,3,4-oxadiazol-2-yl)methyl)-1,3-benzothiazol-6-yl)-2-chloro-N,N-dimethylbenzamide] | < 0.01 µM | 0.391 µM
17 | CC(C)(C)OC(=O)NS(=O)(=O)NCc1nnc(C(c2nc3ccc(-c4ccc(C(=O)N5CCOCC5)c(Cl)c4)cc3s2)S(=O)(=O)Cc2ccccc2)o1 (stereo not drawn) [Example 147, 2-methyl-2-propanyl [({5-[(benzylsulfonyl){6-[3-chloro-4-(4-morpholinylcarbonyl)phenyl]-1,3-benzothiazol-2-yl}methyl]-1,3,4-oxadiazol-2-yl}methyl)sulfamoyl] carbamate] | 0.017 µM | 0.626 µM
18 | NS(=O)(=O)NCc1nnc(C(c2nc3ccc(-c4ccc(Cl)c(Cl)c4)cc3s2)S(=O)(=O)Cc2ccccc2)o1 (stereo not drawn) [Example 148, N-((5-((benzylsulfonyl)(6-(3,4-dichlorophenyl)-1,3-benzothiazol-2-yl)methyl)-1,3,4-oxadiazol-2-yl)methyl)sulfamide] | < 0.01 µM | < 0.01 µM
